# Measurements published in US11096390B2, “Method of controlling weeds in a cultivation area of field corn” (SUMITOMO CHEMICAL COMPANY, LIMITED, priority 2019, dated 2021).
# Legend:
# field corn = assay: Pot test, soil spray after sowing: crop injury on field corn; assay type: in vivo, Zea mays var. indentata and/or Zea mays var. indurata
# Description: (§1) The evaluation of the herbicidal effect and crop injury is classified into 0 to 100, where the numeral “0” indicates no or little difference in the state of germination or growth of weeds or corn under test at the time of examination as comparison with untreated weeds or corn, respectively and the numeral “100” indicates the complete death of weeds or corn under test or the complete inhibition of their germination or growth of weeds or corn under test.
# (§2) Three varieties of field corn, two varieties of popcorn, two varieties of sweet corn, two varieties of waxy corn, palmer amaranth, kochia and large crabgrass were sown to a pot filled with a soil. On the next day, a trifludimoxazin spray liquid (prepared by diluting an emuslfiable concentrate of trifludimoxazin with water) was uniformly sprayed onto the pot at the amount of 200 L per hectare so that the application rate of trifludimoxazin might be 50 g per hectare. 12 days after treatment, herbicidal effects on weeds and injury on corns were investigated. As a result, the herbicidal effect on each of the three weeds was 100.
# as §2, with “Four” for “Three”, “sweet” for “sweet corn, two varieties of waxy”, “25” for “50”, “13” for “12”
# popcorn = assay: Pot test, soil spray after sowing: crop injury on popcorn; assay type: in vivo, Zea mays var. everta
# Description: as §1, §2
# as §2, with “Four” for “Three”, “sweet” for “sweet corn, two varieties of waxy”, “25” for “50”, “13” for “12”
# sweet corn = assay: Pot test, soil spray after sowing: crop injury on sweet corn; assay type: in vivo, Zea mays var. saccharata
# Description: as §1, §2
# as §2, with “Four” for “Three”, “sweet” for “sweet corn, two varieties of waxy”, “25” for “50”, “13” for “12”
# waxy corn = assay: Pot test, soil spray after sowing: crop injury on waxy corn; assay type: in vivo, Zea mays var. ceratina; details: 50 g/ha, 12 days after treatment
# Description: as §1, §2
# palmer amaranth = assay: Pot test, soil spray after sowing: herbicidal effect on palmer amaranth; assay type: in vivo, Amaranthus palmeri
# Description: as §1, §2
# (§3) Four varieties of field corn, two varieties of popcorn, two varieties of sweet corn, palmer amaranth, kochia and large crabgrass were sown to a pot filled with a soil. […]
# kochia = assay: Pot test, soil spray after sowing: herbicidal effect on kochia; assay type: in vivo, Kochia scoparia
# Description: as §1, §2, §3
# large crabgrass = assay: Pot test, soil spray after sowing: herbicidal effect on large crabgrass; assay type: in vivo, Digitaria sanguinalis
# Description: as §1, §2, §3
# [1] = tested on: palmer amaranth, waterhemp, kochia, common ragweed and marestail; assay: Example 1 pot test, spray two days after sowing: herbicidal effects on weeds; assay type: in vivo; details: 25 or 50 g per hectare; applied two days after sowing; 21 days after the treatment
# Description: as §1
# (§4) A pot is filled with a soil, and then field corn, popcorn, sweet corn, waxy corn, palmer amaranth, waterhemp, kochia, common ragweed and marestail are sown thereto. Two days later, trifludimoxazin spray liquid (prepared by diluting trifludimoxazin formulation (an aqueous suspension concentrate containing 500 g/L of trifludimoxazin) with water) is uniformly applied onto the pot using sprayer at the amount of 200 L per hectare so that the application rate of trifludimoxazin may be 25 or 50 g per hectare. 21 days after the treatment, herbicidal effects and injuries on various corns are investigated.
# [2] = tested on: field corn, popcorn, sweet corn, waxy corn; assay: Example 1 pot test, spray two days after sowing: injuries on various corns; assay type: in vivo, Zea mays; details: 25 or 50 g per hectare; applied two days after sowing; 21 days after the treatment
# Description: as §1, §4
# [3] = tested on: palmer amaranth, waterhemp, kochia, common ragweed and marestail; assay: Example 2 pot test, spray the day before sowing corns: herbicidal effects on weeds; assay type: in vivo; details: 25 or 50 g per hectare; applied on day of weed sowing, corns sown next day; 21 days after sowing corns
# Description: as §1
# as §4, with “Palmer” for “field corn, popcorn, sweet corn, waxy corn, palmer”, “On the same day,” for “Two days later,”, “hectare. On the next day, field corn, popcorn, sweet corn, and waxy corn are sown.” for “hectare.”, “sowing corns,” for “the treatment,”
# [4] = tested on: field corn, popcorn, sweet corn, and waxy corn; assay: Example 2 pot test, spray the day before sowing corns: injuries on various corns; assay type: in vivo, Zea mays; details: 25 or 50 g per hectare; applied the day before sowing corns; 21 days after sowing corns
# Description: as §1
# as §4, with “Palmer” for “field corn, popcorn, sweet corn, waxy corn, palmer”, “On the same day,” for “Two days later,”, “hectare. On the next day, field corn, popcorn, sweet corn, and waxy corn are sown.” for “hectare.”, “sowing corns,” for “the treatment,”
# [5] = 25 g per hectare, 13 days after treatment
# [6] = 50 g per hectare, 12 days after treatment
smiles,measurement,setting,value
C#CCN1C(=O)C(F)(F)Oc2cc(F)c(-n3c(=O)n(C)c(=S)n(C)c3=O)cc21 [trifludimoxazin],Injury score on corn (0 to 100),"field corn; Field corn DKC5632, 25 g/ha, 13 days after treatment",0
same,Injury score on corn (0 to 100),"field corn; Field corn DKC5632, 50 g/ha, 12 days after treatment",10
same,Injury score on corn (0 to 100),"field corn; Field corn Koshu, 25 g/ha, 13 days after treatment",0
same,Injury score on corn (0 to 100),"field corn; Field corn Koshu, 50 g/ha, 12 days after treatment",5
same,Injury score on corn (0 to 100),"field corn; Field corn MAS40F, 25 g/ha, 13 days after treatment",5
same,Injury score on corn (0 to 100),"field corn; Field corn Pioneer 2088, 25 g/ha, 13 days after treatment",0
same,Injury score on corn (0 to 100),"field corn; Field corn Pioneer 2088, 50 g/ha, 12 days after treatment",5
same,Injury score on corn (0 to 100),"popcorn; Popcorn Maru-pop, 25 g/ha, 13 days after treatment",20
same,Injury score on corn (0 to 100),"popcorn; Popcorn Maru-pop, 50 g/ha, 12 days after treatment",50
same,Injury score on corn (0 to 100),"popcorn; Popcorn Yuki-pop, 25 g/ha, 13 days after treatment",20
same,Injury score on corn (0 to 100),"popcorn; Popcorn Yuki-pop, 50 g/ha, 12 days after treatment",40
same,Injury score on corn (0 to 100),"sweet corn; Sweet corn Ohisama, 25 g/ha, 13 days after treatment",20
same,Injury score on corn (0 to 100),"sweet corn; Sweet corn Ohisama, 50 g/ha, 12 days after treatment",40
same,Injury score on corn (0 to 100),"sweet corn; Sweet corn Rancher 82, 25 g/ha, 13 days after treatment",30
same,Injury score on corn (0 to 100),"sweet corn; Sweet corn Rancher 82, 50 g/ha, 12 days after treatment",30
same,Injury score on corn (0 to 100),waxy corn; Waxy corn Ki-mochi,30
same,Injury score on corn (0 to 100),waxy corn; Waxy corn Shiro-mochi,40
same,herbicidal effect (0 to 100),palmer amaranth; [5],100
same,herbicidal effect (0 to 100),palmer amaranth; [6],100
same,herbicidal effect (0 to 100),kochia; [5],100
same,herbicidal effect (0 to 100),kochia; [6],100
same,herbicidal effect (0 to 100),large crabgrass; [5],100
same,herbicidal effect (0 to 100),large crabgrass; [6],100
same,herbicidal effects on all weeds,[1],High herbicidal effects
same,"injury on field corn compared with popcorn, sweet corn and waxy corn",[2],"less than those on popcorn, sweet corn and waxy corn"
same,herbicidal effects on all weeds,[3],High herbicidal effects
same,"injury on field corn compared with popcorn, sweet corn and waxy corn",[4],"less than those on popcorn, sweet corn and waxy corn"
